Experimental data: US12427189B2, “Vaccine comprising epitope of heat shock protein, and use thereof” (ASTON SCI. CO., LTD., priority 2018, dated 2025)

Legend:
[1] = tested on: mouse mammary carcinoma (MMC) cells; assay: Combination of HSP90 peptides and STING agonist in MMC tumor-bearing mice; format: in vivo, neu-transgenic mice
Source text: (§1) To evaluate effects of the combination therapeutic with HSP90 peptides and STING agonist (tlrl-dmx, InvivoGen, CA, USA), MMC cells (5×10^5) were implanted with s.c in neu-transgenic mice. […] Three immunizations were given 10 days apart. 15 days after the third vaccination, spleen, tumor and serum was harvested in mice. To evaluate survival analysis of the combination effects with HSP90 peptides and STING agonist, mice were monitored two time per week until 90 days following tumor implantation and when tumor reached a size greater than 2,000 mm^3, mice were considered dead.
The levels of HSP90 and HER2 ECD were evaluated by ELISA in the serum of HER2 positive breast cancer patients and mice. Briefly, HSP90 (ADI-SPP-776, Enzo Life Science, NY, USA) and HER2 ECD (YCP5341, Speed Biosystems) recombinant proteins were coated a 96-well microplate with 50 μL per well of the diluted concentration of 20 μg/mL in carbonate buffer. Standard was coated with IgG dilution of human and mouse to serial concentration (0.64˜0.005 μg/mL). […] Samples (200 μL) were added to the wells and incubated overnight at 4° C. […] The optical density of each well at 450 nm was determined using an IMARKTM™ microplate reader (Bio-Rad Laboratories, Hercules, CA, USA). […]

[2] = tested on: mouse mammary carcinoma (MMC) cells; assay: Survival analysis of HSP90 peptides and STING agonist in MMC tumor-bearing mice; format: in vivo, neu-transgenic mice; conditions: monitored until 90 days after tumor implantation; tumor >2,000 mm^3 considered dead
Source text: as §1

[3] = tested on: MMC cells; assay: Lapatinib treatment of MMC tumor-bearing mice; format: in vivo, neu-transgenic mice; conditions: day 34, lapatinib 75 mg/kg oral gavage 5 times weekly
Experimental: (§2) To establishment lapatinib-resistant mouse model, MMC and lapatinib-resistant MMC cells (1×106) were injected flank with s.c in neu-transgenic mice.

[4] = tested on: LR-MMC cells; conditions: per 10 high-power field, IHC
[5] = tested on: LR-MMC cells; assay: Cell viability MTT assay, lapatinib-resistant MMC cells; format: cell-based, mouse
Source text: (§3) Neu-transgenic mice [strain: FVB/N-Tg(MMTVneu)202Mul] were obtained from the Jackson Laboratory (Bar Harbor, ME). These mice harbor non-mutated, non-activated rat neu under the control of the mouse mammary tumor virus (MMTV) promoter/enhancer. The neu transgene is expressed at low levels in normal mammary epithelium, salivary gland, and lung. Until the age of eight month, 35% of female neu-transgenic mice spontaneously develop mammary carcinomas that display high neu-expression levels. Mouse mammary carcinoma (MMC) cell line was established from a spontaneous tumor in neu-transgenic mouse. MMC cells were maintained in RPMI-1640 medium (ThermoFisher scientific, Utah, USA) supplemented with 10% fetal bovine serum, 100 units/ml penicillin, […] streptomycin and 2 mM L-glutamine, and were incubated in a humidified 37° C. incubator with 5% CO2. Lapatinib was purchased from LC laboratories (L-4899, MA, USA). […]
(§4) Cells were seeded at a density of 1×10^5 cells in 6-well plates. […] Cell viability was quantitatively analysed using the 3-[4,5-dimethylthiazol-2-yl]-2,5-diphenyltetrazolium (MTT) assay. […] The absorbance of the converted MTT dye was measured at 540 nm using an IMARK™ microplate reader (Bio-Rad Laboratories). Cell viability was expressed as the relative percentage compared to untreated cells; experimental error was also calculated. […] The percent of cell survival was calculated using […] […]

[6] = tested on: LR-MMC cells; assay: Lapatinib treatment of LR-MMC tumor-bearing mice; format: in vivo, neu-transgenic mice; conditions: lapatinib 75 mg/kg oral gavage 5 times weekly
Experimental: as §2

[7] = tested on: MMC cells; assay: Cell viability MTT assay, MMC cells; format: cell-based, mouse
Source text: as §3, §4

[8] = tested on: human PBMCs; assay: IFN-γ and IL-10 ELISPOT screen of HSP90 peptides in human PBMCs; format: cell-based; conditions: human PBMCs from 10 volunteer donors
Experimental: Serum samples were obtained after written consent, from 25 HER2 positive breast cancer patient, and 25 volunteer donors at the Korea University Anam Hospital (Approval number: 2016AN0090). All sera were aliquoted and stored at −80° C. For human T cell response studies, peripheral blood mononuclear cells (PBMC) were obtained after informed consent, from 10 breast cancer patients, and 10 volunteer donors. Cells were ficolled and cryopreserved as previously described (Guy C T, et al. (1992) Expression of the neu protooncogene in the mammary epithelium of transgenic mice induces metastatic disease. Proceedings of the National Academy of Sciences of the United States of America 89(22):10578-10582). PBMC samples were obtained at the General Clinical Research Center Facility at the University of Washington (Approval number: NIH MO1-RR-00037)
(§5) Color development was stopped by washing under tap water.
This study profiled the peptide sequences with the highest recognition of HSP90 peptide and MHC class II peptide binding by a scoring system combining multiple MHC class II peptide binding algorithms. FIG. 2 depicts the entire HSP90 peptide sequence and identified immunogenic “hotspots”. Among them, 11 peptides with the highest scores in the binding affinity scoring system were selected. The selected 11 15-mer HSP90 peptides (Table 2) were screened for T helper (Th)1 or Th2 immunity in human PBMCs from 10 volunteer donors by IFN-γ ELISPOT assay using as a representative Th1 cytokine, IFN-γ, and a Th2 cytokine, Interleukine-10 (IL-10).

[9] = tested on: Splenocytes; assay: Immunogenicity of HSP90 peptides in immunized FVB mice, IFN-γ ELISPOT of splenocytes; format: in vivo; conditions: mice immunized s.c. 100 μg single peptide in CFA/IFA, 3 times; compared with control
Experimental: To test immunogenicity of the selected peptides in murine model, six to eight-week-old female FVB mice were obtained from Koatech (Gyeonggi, Korea). The mice were immunized subcutaneous (s.c) injection with 100 μg of respective HSP90 peptides of SEQ ID NOs: 1, 2, and 5-14 or Phosphate Buffered Saline (PBS) as a mixture in complete Freund's adjuvant (CFA; F5881, Sigma, MO, USA)/incomplete Freund's adjuvant (IFA; F5506, Sigma). Three immunizations were given 10 days apart. Ten days after the third vaccination, spleen and serum was harvested from each mouse.
as §5

Cc1ccc2c(=O)c3cccc(CC(=O)O)c3oc2c1C [STING agonist]
mean tumor volume (mean±SD) ([1]; day 35, treatment from tumor >100 mm^3, 3 times): 647±66 mm^3
expression levels of mouse HER2 ECD (ELISA) ([1]; serum): 89 µg/mL
median survival [2]: 79 days

CS(=O)(=O)CCNCc1ccc(-c2ccc3ncnc(Nc4ccc(OCc5cccc(F)c5)c(Cl)c4)c3c2)o1 [lapatinib]
mean tumor volume (mean±SD) [3]: 1711±397 mm^3
infiltrated CD8+ T cells in tumor (Mean median) [4]: 6.6 counts
apoptosis ([5]; LR-MMC cells compared with MMC cells): did not induce significant apoptosis
IC50 ([5]; Mus musculus, LR-MMC cells): 390 nM
mean tumor volume (mean±SD) [6]: 1212±523 mm^3
sensitivity after lapatinib treatment ([7]; MMC cells): sensitive in a dose-dependent manner
IC50 ([7]; Mus musculus, parent MMC cells): 76 nM

IVKKHSQFIGYPITL (HSP90 p328-342) [HSP90 15-mer peptide]
Th1 and Th2 immune responses (IFN-γ and IL-10 ELISPOT) [8]: strong Th1 and Th2 immune responses

LEFRALLFVPRRAPF (HSP90 p457-471) [HSP90 15-mer peptide]
Th1 and Th2 immune responses (IFN-γ and IL-10 ELISPOT) [8]: weak Th1 and Th2 immune responses
antigen-specific T cell response (IFN-γ ELISPOT) [9]: significantly higher

LYKDLQPFILLRLLM (HSP90 p109-123) [HSP90 15-mer peptide]
Th1 and Th2 immune responses (IFN-γ and IL-10 ELISPOT) [8]: strong Th1 and Th2 immune responses

LYVRRVFIMDNCEEL (HSP90 p485-499) [HSP90 15-mer peptide]
Th1 and Th2 immune responses (IFN-γ and IL-10 ELISPOT) [8]: predominantly Th1 immune responses
antigen-specific T cell response (IFN-γ ELISPOT) [9]: significantly higher

QFGVGFYSAYLVAEK (HSP90 p255-269) [HSP90 15-mer peptide]
Th1 and Th2 immune responses (IFN-γ and IL-10 ELISPOT) [8]: weak Th1 and Th2 immune responses

QSKILKVIRKNLVKK (HSP90 p527-541) [HSP90 15-mer peptide]
Th1 and Th2 immune responses (IFN-γ and IL-10 ELISPOT) [8]: predominantly Th1 immune responses
antigen-specific T cell response (IFN-γ ELISPOT) [9]: significantly higher

SELLRYYTSASGDEM (HSP90 p582-596) [HSP90 15-mer peptide]
Th1 and Th2 immune responses (IFN-γ and IL-10 ELISPOT) [8]: weak Th1 and Th2 immune responses

SVKDLVILLYETALL (HSP90 p780-794) [HSP90 15-mer peptide]
Th1 and Th2 immune responses (IFN-γ and IL-10 ELISPOT) [8]: weak Th1 and Th2 immune responses

TDTGEPMGRGTKVIL (HSP90 p296-310) [HSP90 15-mer peptide]
Th1 and Th2 immune responses (IFN-γ and IL-10 ELISPOT) [8]: weak Th1 and Th2 immune responses

YSNKEIFLRELISNS (HSP90 p160-174) [HSP90 15-mer peptide]
Th1 and Th2 immune responses (IFN-γ and IL-10 ELISPOT) [8]: weak Th1 and Th2 immune responses
antigen-specific T cell response (IFN-γ ELISPOT) [9]: significantly higher
